Assay results taken from paper doi:10.1101/2022.04.05.487228v1 (biorxiv, 2022).

Target: bovine rod opsin (unliganded, in ROS membranes) (Bos taurus, UniProt P02699)
Test: intrinsic Trp fluorescence quenching at […] nm
Assay type: binding

Sequence of bovine rod opsin (unliganded, in ROS membranes) (P02699 whole entry): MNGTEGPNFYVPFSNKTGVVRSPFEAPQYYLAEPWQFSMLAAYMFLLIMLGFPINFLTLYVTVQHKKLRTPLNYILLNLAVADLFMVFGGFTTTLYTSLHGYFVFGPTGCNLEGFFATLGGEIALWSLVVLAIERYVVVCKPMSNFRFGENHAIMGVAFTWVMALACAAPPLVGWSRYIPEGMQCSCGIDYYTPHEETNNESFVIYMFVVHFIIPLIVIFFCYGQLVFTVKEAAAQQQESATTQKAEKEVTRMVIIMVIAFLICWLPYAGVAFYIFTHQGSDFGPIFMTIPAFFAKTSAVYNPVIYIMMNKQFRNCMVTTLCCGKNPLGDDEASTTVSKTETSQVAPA

An EC50 of 275 ± 26 nM was found for `Cc1cc(=O)oc2cc(OC(C(=O)c3ccccc3)c3ccccc3)ccc12` (stereo not shown) [CR1] in this work.

An EC50 of 375 ± 21 nM was found for `Cc1c(OCc2ccc(C(=O)O)cc2)ccc2c3c(c(=O)oc12)CCC3` [CR2] in this work.

An EC50 of 207 ± 46 nM was found for `Cc1ccc(C(=O)Oc2ccc3c4c(c(=O)oc3c2)CCCC4)cc1` [CR3] in this work.

An EC50 of 171 ± 23 nM was found for `Cc1c(OC(C)C(=O)OCc2ccccc2)ccc2c3c(c(=O)oc12)CCC3` (stereo not shown) [CR4] in this work.
